Experimental data: the supplement of paper PMC10307832

Tests used:
Test in all cases: relative viability (nuclei count vs DMSO), 5 days (fraction); higher = more cells survive
Axitinib + OSI-027 = compound: CNC(=O)c1ccccc1Sc1ccc2c(/C=C/c3ccccn3)n[nH]c2c1 [Axitinib] + COc1cccc2cc(-c3nc([C@H]4CC[C@H](C(=O)O)CC4)n4ncnc(N)c34)[nH]c12 [OSI-027] (partner 0.5 µM)
Procedure, shortened: (§1)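 The day after seeding in 1536-well plates, lung cancer cell lines were treated by pin tool with a single drug, or with a fixed anchor-drug dose together with five library-drug doses (not always all listed) in √10 steps. After 5 days, a combined fix-and-stain solution (final 0.05% Triton X-100, 1% formaldehyde, 1 ug/ml Hoechst) was added. Nuclei counted on 4× images gave relative viability as treated counts over vehicle counts, reported as the median of duplicate plates.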

[1] = compound: CC1=CC=C(C=C1)C(=O)CN2C3=C(CCCC3)SC2=N [Pifithrin_alpha] + Cc1nc(Nc2ncc(C(=O)Nc3c(C)cccc3Cl)s2)cc(N2CCN(CCO)CC2)n1 [Dasatinib] (partner 0.075 µM)
Procedure, shortened: as §1

Axitinib + Pemetrexed = compound: CNC(=O)c1ccccc1Sc1ccc2c(/C=C/c3ccccn3)n[nH]c2c1 [Axitinib] + Nc1nc2[nH]cc(CCc3ccc(C(=O)N[C@@H](CCC(=O)O)C(=O)O)cc3)c2c(=O)[nH]1 [Pemetrexed] (partner 0.2 µM)
Procedure, shortened: as §1

[2] = compound: CC1=CC=C(C=C1)C(=O)CN2C3=C(CCCC3)SC2=N [Pifithrin_alpha] + Cc1nc(NC(=O)N2CCC[C@H]2C(N)=O)sc1-c1ccnc(C(C)(C)C(F)(F)F)c1 [Alpelisib] (partner 2 µM)
Procedure, shortened: as §1

Row | Cell Line | relative viability (Axitinib + OSI-027; first compound 0.005 µM) | relative viability (Axitinib + OSI-027; first compound 0.01581 µM) | relative viability (Axitinib + OSI-027; first compound 0.05 µM) | relative viability (Axitinib + OSI-027; first compound 0.1581 µM) | relative viability (Axitinib + OSI-027; first compound 0.5 µM) | relative viability ([1]; first compound 1 µM) | relative viability ([1]; first compound 3.162 µM) | relative viability ([1]; first compound 10 µM) | relative viability ([1]; first compound 31.62 µM) | relative viability ([1]; first compound 100 µM) | relative viability (Axitinib + Pemetrexed; first compound 0.005 µM) | relative viability (Axitinib + Pemetrexed; first compound 0.01581 µM) | relative viability (Axitinib + Pemetrexed; first compound 0.05 µM) | relative viability (Axitinib + Pemetrexed; first compound 0.1581 µM) | relative viability (Axitinib + Pemetrexed; first compound 0.5 µM) | relative viability ([2]; first compound 1 µM) | relative viability ([2]; first compound 3.162 µM) | relative viability ([2]; first compound 10 µM) | relative viability ([2]; first compound 31.62 µM) | relative viability ([2]; first compound 100 µM)
1 | NCI-H1734 | 0.586 | 0.57 | 0.656 | 0.623 | 0.644 | 0.421 | 0.494 | 0.474 | 0.461 | 0.424 | 0.413 | 0.432 | 0.412 | 0.435 | 0.429 | 0.75 | 0.699 | 0.638 | 0.576 | 0.682
2 | NCI-H1993 | 0.549 | 0.573 | 0.582 | 0.481 | 0.484 | 0.531 | 0.532 | 0.581 | 0.559 | 0.608 | 0.606 | 0.601 | 0.604 | 0.628 | 0.541 | – | 0.692 | 0.757 | 0.568 | 0.607
3 | NCI-H2085 | 0.827 | 0.691 | 0.857 | 0.77 | 0.66 | 0.205 | 0.262 | 0.222 | 0.268 | 0.174 | 0.903 | 0.876 | 0.905 | 0.806 | 0.808 | 0.907 | 0.972 | 0.849 | 0.706 | 0.808
4 | EBC-1 | – | – | – | – | – | – | – | – | – | – | – | – | – | – | – | 0.821 | 0.834 | 0.683 | 0.558 | 0.602
5 | COR-L23 | 0.88 | 0.775 | 0.804 | 0.75 | 1.19 | 0.567 | 0.458 | 0.386 | – | 0.38 | 0.197 | 0.201 | 0.194 | 0.192 | 0.21 | 0.857 | 0.849 | 0.931 | – | 0.663
6 | NCI-H1793 | 0.348 | 0.198 | 0.349 | 0.289 | 0.312 | – | 0.466 | 0.4 | 0.403 | 0.393 | 1.04 | 0.568 | 1.01 | 0.821 | 0.791 | 0.752 | 0.68 | 0.839 | 0.73 | 0.538
7 | A549 | – | – | – | – | – | – | – | – | – | – | – | – | – | – | – | 0.895 | 0.777 | 0.644 | 0.698 | 0.799
8 | EPLC-272H | 0.3 | 0.286 | 0.248 | 0.293 | 0.283 | 0.236 | 0.344 | 0.324 | 0.279 | 0.379 | 0.333 | 0.341 | 0.302 | 0.381 | 0.336 | – | 0.965 | 0.914 | 0.934 | 1.02
